Measured values published in paper PMC10694602, “Binding of perilipin 3 to membranes containing diacylglycerol is mediated by conserved residues within its PAT domain” (The Journal of Biological Chemistry, 2023).
Where a chain is given by its changes, count along the chain named. Structures can show the parent of a compound that is named as a salt. Where two headings read alike, the source gives them in different places. Each block holds one molecule with its values, some of them ahead of it.

Experiments:
PLIN3 = molecular target: T1, PLIN3 (Homo sapiens, UniProt O60664); assay: Microscale thermophoresis (MST) binding of lipids, liposomes or ALDs to full-length WT PLIN3; details: for fold increase of PLIN3 binding versus unspiked DOPC/DOPE liposomes: DOPC/DOPE (80/20 mol%) liposomes, DAG 5 mol%, DOPA 10 mol%
T1 construct: Plasmids containing human full-length PLIN3 or fragments thereof were obtained by PCR amplification; made in house; host or cells: Escherichia coli BL21 (DE3) or NiCo21 (DE3)
T1 sequence (O60664 1-434): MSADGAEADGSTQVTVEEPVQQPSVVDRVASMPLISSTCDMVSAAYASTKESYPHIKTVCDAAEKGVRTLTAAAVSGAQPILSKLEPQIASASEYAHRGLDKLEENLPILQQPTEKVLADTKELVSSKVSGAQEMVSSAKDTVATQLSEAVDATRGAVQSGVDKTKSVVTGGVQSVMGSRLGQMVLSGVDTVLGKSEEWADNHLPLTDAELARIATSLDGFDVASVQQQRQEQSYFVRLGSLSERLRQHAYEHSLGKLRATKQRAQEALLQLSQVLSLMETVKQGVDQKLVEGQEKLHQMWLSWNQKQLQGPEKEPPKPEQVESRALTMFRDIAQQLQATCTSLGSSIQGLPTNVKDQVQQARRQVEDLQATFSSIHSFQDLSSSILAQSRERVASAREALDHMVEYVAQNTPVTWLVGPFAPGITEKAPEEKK
Source text: To corroborate these findings, we analyzed binding of PLIN3 to liposomes using microscale thermophoresis (MST), an immobilization-free technology for measuring biomolecular interactions based on the diffusion of a fluorescently labeled protein along a microscopic temperature gradient. In this assay, the free protein diffuses faster than the one which has bound to a ligand. Ligands can range from small ions to low molecular weight compounds, liposomes, or even viruses ([24], [25], [26], [27], [28]). Variations in fluorescence intensity are then plotted against the ligand concentrations to determine a binding affinity. […] To determine the optimal DAG concentrations for PLIN3 binding, we varied the DAG concentrations in the ER-liposomes between 0 to 20 mol%.
(§1) Binding of purified PLIN3 protein and PLIN3 domains to liposomes, ALDs, or short chain lipids was determined by MST using a Monolith NT.115 system (Nanotemper Technologies). Proteins were labeled with a RED-tris-NTA His tag protein-labeling reagent following the manufacturer’s instructions (Nanotemper Technologies). Labeled proteins were added to a serial dilution of unlabeled lipids, liposomes, or ALDs, and the mixtures were loaded into MST standard capillaries to assess binding affinities. The dissociation constant was obtained by plotting fluorescence intensities of the protein–lipid complex against the concentrations of the unlabeled lipids, liposomes, or ALDs. Experiments were performed in triplicates and data were fitted using the KD Model of the MO.Affinity Analysis software (https://nanotempertech.com/, Nanotemper Technologies).

4-helix bundle of PLIN3 = molecular target: T2, 4-helix bundle of PLIN3 (Homo sapiens, UniProt O60664); assay: MST binding to the 4-helix bundle of PLIN3
T2 sequence (O60664 245-434 limits assumed): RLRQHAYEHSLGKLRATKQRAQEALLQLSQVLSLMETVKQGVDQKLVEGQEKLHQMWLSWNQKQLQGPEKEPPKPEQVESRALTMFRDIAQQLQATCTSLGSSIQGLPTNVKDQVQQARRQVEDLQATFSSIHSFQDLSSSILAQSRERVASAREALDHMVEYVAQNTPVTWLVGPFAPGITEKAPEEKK
Source text: (§2) To gain further insight into the binding of PLIN3 to DAG-containing membranes, we examined the contribution of each individual domain of PLIN3 towards lipid binding, that is, the N-terminal PAT domain, the central 11-mer repeat region, and the C-terminally located 4-helix bundle (Fig. 2A). Therefore, we expressed and purified proteins harboring individual domains of PLIN3 and first examined their binding of short-chain lipids.
as §1

PAT domain of PLIN3 = molecular target: T3, PAT domain of PLIN3 (Homo sapiens, UniProt O60664); assay: MST binding to the PAT domain of PLIN3; details: short chain lipids as free ligands; for Kd: n.d. = not detected, Fig. 2B
T3 sequence (O60664 1-107 limits assumed): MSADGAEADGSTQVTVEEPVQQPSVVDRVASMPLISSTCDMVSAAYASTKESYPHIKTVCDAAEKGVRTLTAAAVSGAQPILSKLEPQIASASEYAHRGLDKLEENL
Source text: as §2, §1

PLIN3 - E86A I89G S93A = molecular target: T4, PLIN3 - E86A I89G S93A (Homo sapiens, UniProt O60664, E86A/I89G/S93A); assay: MST binding to the PLIN3 triple mutant; details: short chain lipid as free ligand; n.d. = not detected; Fig. 4C
T4 construct: Plasmids containing human full-length PLIN3 or fragments thereof were obtained by PCR amplification; made in house; host or cells: Escherichia coli BL21 (DE3) or NiCo21 (DE3)
T4 sequence (O60664 1-434 E86A/I89G/S93A): T1 sequence (O60664 1-434) with E86A, I89G, S93A
Source text: (§3) To validate this predicted mode of DAG binding by the PAT domain, we generated mutant versions of PLIN3 and assessed their impact on DAG binding by MST. First, we tested whether the simultaneous substitution of the five residues, Q22, S24, E86A, I89G, and S93A, would impact either binding of short chain DAG or that of liposomes containing low concentrations of DAG. […] To assess the impact of these residues in more detail, we first tested mutations in the two serine residues S24A and S93A. […] To confirm the importance of the glutamic acid residue at position 86 for binding of DAG, we also generated an E86A point mutant version.
as §1, with “Experiments were performed in triplicates and data were fitted using the KD Model of the MO.Affinity Analysis software (https://nanotempertech.com/, Nanotemper Technologies).” left out

PLIN3 - E86A = molecular target: T5, PLIN3 - E86A (Homo sapiens, UniProt O60664, E86A); assay: MST binding to the PLIN3 point mutant; details: short chain lipid as free ligand
T5 construct: Plasmids containing human full-length PLIN3 or fragments thereof were obtained by PCR amplification; made in house; host or cells: Escherichia coli BL21 (DE3) or NiCo21 (DE3)
T5 sequence (O60664 1-434 E86A): T1 sequence (O60664 1-434) with E86A
Source text: as §3
as §1, with “Experiments were performed in triplicates and data were fitted using the KD Model of the MO.Affinity Analysis software (https://nanotempertech.com/, Nanotemper Technologies).” left out

PLIN3 - S24A S93A = molecular target: T6, PLIN3 - S24A S93A (Homo sapiens, UniProt O60664, S24A/S93A); assay: MST binding to the PLIN3 serine double mutant; details: short chain lipid as free ligand
T6 construct: Plasmids containing human full-length PLIN3 or fragments thereof were obtained by PCR amplification; made in house; host or cells: Escherichia coli BL21 (DE3) or NiCo21 (DE3)
T6 sequence (O60664 1-434 S24A/S93A): T1 sequence (O60664 1-434) with S24A, S93A
Source text: as §3
as §1, with “Experiments were performed in triplicates and data were fitted using the KD Model of the MO.Affinity Analysis software (https://nanotempertech.com/, Nanotemper Technologies).” left out

[1] = molecular target: T7, PLIN3 - Q22A S24A E86A I89G S93A (Homo sapiens, UniProt O60664, E86A/I89G/Q22A/S24A/S93A); assay: MST binding to the PLIN3 quintuple mutant; details: short chain lipid as free ligand; n.d.; Fig. S1
T7 construct: Plasmids containing human full-length PLIN3 or fragments thereof were obtained by PCR amplification; made in house; host or cells: Escherichia coli BL21 (DE3) or NiCo21 (DE3)
T7 sequence (O60664 1-434 Q22A/S24A/E86A/I89G/S93A): T1 sequence (O60664 1-434) with Q22A, S24A, E86A, I89G, S93A
Source text: as §3
as §1, with “Experiments were performed in triplicates and data were fitted using the KD Model of the MO.Affinity Analysis software (https://nanotempertech.com/, Nanotemper Technologies).” left out

[2] = molecular target: T8, 11-mer repeat region of PLIN3 (Homo sapiens, UniProt O60664); assay: MST binding to the 11-mer repeat region of PLIN3; details: short chain lipids as free ligands; n.d. = not detected; Fig. 2B
T8 sequence (O60664 115-179 limits assumed): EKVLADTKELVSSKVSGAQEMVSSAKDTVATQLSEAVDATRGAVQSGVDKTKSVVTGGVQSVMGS
Source text: as §2, §1

His-tagged human PLIN3 = molecular target: T9, His-tagged human PLIN3 (Homo sapiens, UniProt O60664); assay: Liposome flotation assay on a sucrose gradient, PLIN3 detected by Western blotting; type: binding; details: ER-liposomes containing 16:0 DAG at 5 mol%; top layer of sucrose gradient
T9 construct: Plasmids containing human full-length PLIN3 or fragments thereof were obtained by PCR amplification; made in house; host or cells: Escherichia coli BL21 (DE3) or NiCo21 (DE3)
T9 sequence (O60664 1-434): T1 sequence (O60664 1-434)
Description: To examine the interaction between soluble PLIN3 and membranes containing DAG, we first performed liposome-binding assays. Therefore, purified His-tagged human PLIN3 was incubated with liposomes prepared from a phospholipid mixture that mimics the composition of the ER membrane (DOPC/DOPE/DOPS/DOPA/SoyPI, 53/23/8/5/11 mol%; hereafter termed ER-liposomes) lacking or containing low concentrations of DAG (16:0 DAG; 5 mol%). Liposomes were then floated on a sucrose gradient, and PLIN3 binding was monitored by Western blotting.
Purified PLIN3 was incubated with liposomes for 1 h at RT and then gently mixed with an equal volume of 60% (w/v) sucrose solution in liposome buffer to obtain a final sucrose concentration of 30%. This mixture was overlaid with two volumes of 20% sucrose solution, two volumes of 10% sucrose solution, and one volume of liposome buffer. The samples were centrifuged at 177,000g for 1 h at 20 °C. Four fractions were collected from the top of the gradient and the distribution of PLIN3 was analyzed by Western blotting. Signal intensities were quantified using ImageJ (https://imagej.net/ij/) software.

[3] = short chain lipid as free ligand, Fig. 1I, Fig. 4C, read-out: KD
[4] = ER-liposomes supplemented with the named DAG at 5 mol%, KD against liposome concentration, Fig. 1C, read-out: KD

Kd (PLIN3; [3]): 0.27 µM
Kd (PAT domain of PLIN3): 17.3 µM
Compound: CCCCCCCC(=O)OCC(COC(=O)CCCCCCC)OC(=O)CCCCCCC [8:0 TAG, 1,2,3-trioctanoylglycerol]

fraction of PLIN3 recovered from liposomes (His-tagged human PLIN3): 13.9%
fold increase of PLIN3 binding versus unspiked DOPC/DOPE liposomes (PLIN3): 36 fold
fold lower dissociation constant than ER-liposomes lacking DAG (PLIN3; ER-liposomes containing 16:0 DAG at 5 mol%): 29 fold
Kd (PLIN3; [4]): 20.6 µM
Kd (PLIN3; PC/PE liposomes (DOPC/DOPE; 80/20 mol%) spiked with 16:0 DAG at 5 mol%, Fig. 1H, read-out: KD): 15 µM
Compound: CCCCCCCCCCCCCCCC(=O)OC[C@H](CO)OC(=O)CCCCCCCCCCCCCCC [16:0 DAG, 1,2-dipalmitoyl-sn-glycerol]

Kd (PLIN3; [4]): 60.1 µM
Compound: CCCCCCCC/C=C\CCCCCCCC(=O)OC[C@H](CO)OC(=O)CCCCCCC/C=C\CCCCCCCC [18:1 DAG, 1,2-dioleoyl-sn-glycerol]

fold increase of PLIN3 binding versus unspiked DOPC/DOPE liposomes (PLIN3): 9 fold
Kd (PLIN3; PC/PE liposomes (DOPC/DOPE; 80/20 mol%) spiked with the named lipid at 10 mol%, n.d. = not detected, Fig. 1H, read-out: KD): 58.1 µM
Compound: CCCCCCCC/C=C\CCCCCCCC(=O)OC[C@H](COP(=O)(O)O)OC(=O)CCCCCCC/C=C\CCCCCCCC [18:1 PA, 1,2-dioleoyl-sn-glycero-3-phosphate]

Kd (PLIN3; ER-liposomes supplemented with 20 mol% cholesterol, Fig. 1E, read-out: KD): 64.9 µM
Compound: CC(C)CCC[C@@H](C)[C@H]1CC[C@H]2[C@@H]3CC=C4C[C@@H](O)CC[C@]4(C)[C@H]3CC[C@]12C [cholesterol]

Second part, the molecule before the results:

Compound: CCCCCCC(=O)OC[C@H](COP(=O)([O-])OCC[N+](C)(C)C)OC(=O)CCCCCC [7:0 PC, 1,2-diheptanoyl-sn-glycero-3-phosphocholine]
Kd (PLIN3): 214 ± 71 µM
Kd (4-helix bundle of PLIN3): 88.5 ± 28.8 µM

Compound: CCCCCCCC(=O)OC[C@H](CO)OC(=O)CCCCCCC [8:0 DAG, 1,2-dioctanoyl-sn-glycerol]
Kd (PLIN3; [3]): 0.1 µM
fold stronger binding than 8:0 PA (PAT domain of PLIN3): 36 fold
Kd (PAT domain of PLIN3): 0.39 µM
Kd (4-helix bundle of PLIN3; short chain lipids as free ligands, n.d. = not detected, Fig. 2B, read-out: KD 4-helix): 20.7 µM
KD (PLIN3 - E86A I89G S93A): failed to bind
fold less efficient binding than WT PLIN3 (PLIN3 - E86A): 873 fold
Kd (PLIN3 - E86A; Fig. 4C): 87.3 µM
fold decreased affinity versus WT PLIN3 (PLIN3 - S24A S93A): 20.9 fold
Kd (PLIN3 - S24A S93A; Fig. S1): 2.09 µM
KD [1]: failed to bind

Compound: CCCCCCCC(=O)OC[C@H](COP(=O)(O)O)OC(=O)CCCCCCC [8:0 PA, 1,2-dioctanoyl-sn-glycero-3-phosphate sodium salt]
Kd (PAT domain of PLIN3): 14.1 µM

Compound: CCCCCCCC(=O)OC[C@H](COP(=O)(O)OC[C@H](N)C(=O)O)OC(=O)CCCCCCC [8:0 PS, 1,2-dioctanoyl-sn-glycero-3-phospho-L-serine sodium salt]
Kd (PAT domain of PLIN3): 106 ± 30.5 µM
Kd [2]: 471 ± 53.8 µM
